A word on the IC50: it is the concentration that gives 50% inhibition.

The subject of the first assay is LAD-2 cells. The assay is described as follows: LAD2 Degranulation Assay (Protocol 2), β-hexosaminidase release. As to conditions: Homo sapiens, 0.5 μM Cortistatin-14, 2 h preincubation, cells without SCF 18-24 hours, top concentration 3 μM. The class given is cell-based. As for the experimental part:
LAD-2 cells were maintained at 37° C. with 5% CO2 and grown in complete StemPro-34 media supplemented with 1% L-Glutamate, 1% penicillin/streptomycin, and 250 ng/mL human SCF.
18-24 hours prior to experiment, LAD-2 cells were collected and transferred to growth media without SCF. On the day of experiment, cells were collected by centrifugation and seeded in 384-well assay plates, at 4,000 cells per well in 17 μl freshly made assay buffer (10 mM HEPES, 137 mM NaCl, 2.7 mM KCl, 1.8 mM CaCl2), 1.0 mM MgCl2, 5.6 mM glucose, 0.4 mM NaH2PO4, 0.04% BSA, pH=7.40). For dose-response assays, compounds solubilized in 100% DMSO at 30 mM were serially diluted (1:3) first in 100% DMSO, and 2 intermediate dilutions with assay buffer were used to establish a final top concentration of 3 μM (in assay plate). For single point assays, dilution of DMSO stocks to 250 nM (in assay plate) was performed in the same manner as described for dose-response assays. Final DMSO concentration was kept constant at 0.1% across plates for all assays. Cortistatin-14 at 30 mM stock concentration was solubilized in HBSS+0.1% BSA, stored at −20° C. in 5 μl aliquots and discarded after one freeze-thaw cycle. Final concentration of agonist used in both dose-response and single point assays was 0.5 μM, prepared in assay buffer.
Antagonist equilibrium was established with 2 h preincubation, followed by no wash, direct addition, and stimulation of agonist for 30 minutes at 37° C. For detection of β-hexosaminidase activity, assay plates were centrifuged and 5 μl of cell-free supernatant from each assay well was transferred to a black-walled black-bottomed 384-well plate. Substrate solution (1 mM 4-Methylumbelliferyl N-acetyl-β-D-glucosaminide in citrate buffer, pH=4.5, […]) was added to each well and plates were incubated for 1 hour at 37° C. The plate was read on an EnVision XCite plate reader for umbelliferone fluorescence intensity (λex=355 nm, λem=460 nm). Background-subtracted data was analyzed using either GraphPad Prism or a custom Python script to calculate IC50 using either Log[Antagonist] vs. response (4 parameter) nonlinear regression (dose-response assays) or % control β-hexosaminidase activity (single point assays).
`C[C@@H](C(=O)Nc1cn2c(n1)CC[C@H]2c1cc(F)ccc1F)N1CCC(F)(F)[C@@H](c2ccc(=O)[nH]c2)C1` (single isomer, unassigned) [Compound 504]: the IC50 worked out at 31 nM.
Regarding `C[C@@H](C(=O)Nc1cn2c(n1)CC[C@@H]2c1ccc(F)cc1F)N1CCC(F)(F)[C@@H](c2ccc(=O)[nH]c2)C1` (single isomer, unassigned) [Compound 505], the 50% inhibitory concentration (IC50) was greater than 3000 nM.
Still for that read-out and setting: under `C[C@@H](C(=O)Nc1cn2c(n1)CC[C@H]2c1ccc(F)cc1F)N1CCC(F)(F)[C@@H](c2ccc(=O)[nH]c2)C1` (single isomer, unassigned) [Compound 506] stands 30 nM; under `C[C@@H](C(=O)Nc1cc2n(n1)CC[C@@H]2c1cc(F)cc(F)c1)N1CCC(F)(F)[C@@H](c2ccc(=O)[nH]c2)C1` (single isomer, unassigned) [Compound 530], 0.81 nM.

The same assay, now with this note: Homo sapiens, single point 250 nM, 0.5 μM Cortistatin-14, % control β-hexosaminidase activity.
With `C[C@@H](C(=O)Nc1nc2n(n1)[C@@H](c1cc(F)cc(F)c1)CC2)N1CCC(F)(F)[C@@H](c2ccc(=O)[nH]c2)C1` (single isomer, unassigned) [Compound 501], the activity at 0.25 µM turned out to be 101%.
For `C[C@@H](C(=O)Nc1nc2n(n1)[C@H](c1cc(F)cc(F)c1)CC2)N1CCC(F)(F)[C@@H](c2ccc(=O)[nH]c2)C1` (single isomer, unassigned) [Compound 502], the activity at 0.25 µM is 44%.
The same measure, in the same setting: under `C[C@@H](C(=O)Nc1cn2c(n1)CC[C@@H]2c1cc(F)ccc1F)N1CCC(F)(F)[C@@H](c2ccc(=O)[nH]c2)C1` (single isomer, unassigned) [Compound 503] stands 105%; under `C[C@@H](C(=O)Nc1cn2c(n1)CC[C@H]2c1cc(F)ccc1F)N1CCC(F)(F)[C@@H](c2ccc(=O)[nH]c2)C1` (single isomer, unassigned) [Compound 504], 13%.
Still for that read-out and setting: the same measure for `C[C@@H](C(=O)Nc1cn2c(n1)CC[C@@H]2c1ccc(F)cc1F)N1CCC(F)(F)[C@@H](c2ccc(=O)[nH]c2)C1` (single isomer, unassigned) [Compound 505]: 106%; for `C[C@@H](C(=O)Nc1cn2c(n1)CCC[C@@H]2c1cc(F)cc(F)c1)N1CCC(F)(F)[C@@H](c2ccc(=O)[nH]c2)C1` (single isomer, unassigned) [Compound 507]: 130%.
For `C[C@@H](C(=O)Nc1cn2c(n1)CCC[C@H]2c1cc(F)cc(F)c1)N1CCC(F)(F)[C@@H](c2ccc(=O)[nH]c2)C1` (single isomer, unassigned) [Compound 508], the activity at 0.25 µM turned out to be 110%.
On the same count and under the same terms, the same measure for `C[C@@H](C(=O)Nc1cn2c(n1)CC[C@@H]2c1cc(F)cc(F)c1)N1CCC(F)(F)CC1` (single isomer, unassigned) [Compound 509]: 11%.
Still for that read-out and setting: the same measure for `C[C@@H](C(=O)Nc1cn2c(n1)CC[C@H]2c1cc(F)cc(F)c1)N1CCC(F)(F)CC1` (single isomer, unassigned) [Compound 510]: 87%.

The target of the next assay is T1, human MRGPRX2 (Homo sapiens, UniProt Q96LB1).
T1 construct: expressed in transfected cells; host or cells: FlpIn TRex HEK293 (TRex-MRGPRX2-HEK), doxycycline-induced
T1 sequence (Q96LB1 1-330): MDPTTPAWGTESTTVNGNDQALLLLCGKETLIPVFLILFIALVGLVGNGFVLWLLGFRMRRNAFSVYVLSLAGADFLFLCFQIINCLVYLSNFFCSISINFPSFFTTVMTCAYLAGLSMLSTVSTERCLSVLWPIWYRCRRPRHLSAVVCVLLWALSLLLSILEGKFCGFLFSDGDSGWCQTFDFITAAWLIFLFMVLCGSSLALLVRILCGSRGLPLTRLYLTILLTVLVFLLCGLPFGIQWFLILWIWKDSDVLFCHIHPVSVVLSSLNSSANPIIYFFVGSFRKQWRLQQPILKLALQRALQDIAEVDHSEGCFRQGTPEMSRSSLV
The assay is described as follows: MRGPRX2 Activity Assay (IP-1 HTRF, antagonist mode). The class given is cell-based. As to conditions: FlpIn TRex-MRGPRX2-HEK293 cells; versus 1 μM Cortistatin-14 agonist; 30 minutes preincubation. The method in brief:
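Doxycycline-induced (100 ng/mL, 18-24 h) TRex HEK293 cells stably expressing human MRGPRX2, in HBSS/20 mM HEPES/0.1% BSA/10 mM LiCl. Compounds (top final 30 uM, 1% DMSO) preincubated 30 min, then agonist stimulation 1 h at 37° C without wash. IP-1 accumulation read by HTRF; IC50 from 4-parameter fit.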
(Time-resolved FRET reads energy transfer from a long-lived donor to a nearby acceptor.)
`C[C@@H](C(=O)Nc1cn(Cc2cc(Cl)cc(Cl)c2)cn1)N1CCC(F)(F)[C@@H](c2cc[n+]([O-])cc2)C1` [Compound 50, 4-((S)-1-((S)-1-((1-(3,5-dichlorobenzyl)-1H-imidazol-4-yl)amino)-1-oxopropan-2-yl)-4,4-difluoropiperidin-3-yl)pyridine 1-oxide] yielded an IC50 of 45 nM.
Still for that read-out and setting: the same measure for `C[C@@H](C(=O)Nc1cn(Cc2cccc(F)c2Cl)cn1)N1CCC(F)(F)[C@@H](c2cc[n+]([O-])cc2)C1` [Compound 51, 4-((S)-1-((S)-1-((1-(2-chloro-3-fluorobenzyl)-1H-imidazol-4-yl)amino)-1-oxopropan-2-yl)-4,4-difluoropiperidin-3-yl)pyridine 1-oxide]: 34 nM; for `[2H]C([2H])(c1cc(F)cc(F)c1)n1cnc(NC(=O)[C@H](C)N2CCC(F)(F)[C@@H](c3cc[n+]([O-])cc3)C2)c1` [Compound 52, 4-((S)-1-((S)-1-((1-((3,5-difluorophenyl)methyl-d2)-1H-imidazol-4-yl)amino)-1-oxopropan-2-yl)-4,4-difluoropiperidin-3-yl)pyridine 1-oxide]: 22 nM; for `C[C@@H](C(=O)Nc1cn(Cc2cc(F)ccc2C(F)(F)F)cn1)N1CCC(F)(F)[C@@H](c2cc[n+]([O-])cc2)C1` [Compound 62, 4-((S)-4,4-difluoro-1-((S)-1-((1-(5-fluoro-2-(trifluoromethyl)benzyl)-1H-imidazol-4-yl)amino)-1-oxopropan-2-yl)piperidin-3-yl)pyridine 1-oxide]: 267 nM.
On the same count and under the same terms, the same measure for `C[C@@H](C(=O)Nc1cn(Cc2ccncc2Cl)cn1)N1CCC(F)(F)[C@@H](c2cc[n+]([O-])cc2)C1` [Compound 63, 4-((S)-1-((S)-1-((1-((3-chloropyridin-4-yl)methyl)-1H-imidazol-4-yl)amino)-1-oxopropan-2-yl)-4,4-difluoropiperidin-3-yl)pyridine 1-oxide]: 114 nM; for `C[C@@H](C(=O)Nc1cn(Cc2cccc(Cl)c2F)cn1)N1CCC(F)(F)[C@@H](c2cc[n+]([O-])cc2)C1` [Compound 64, 4-((S)-1-((S)-1-((1-(3-chloro-2-fluorobenzyl)-1H-imidazol-4-yl)amino)-1-oxopropan-2-yl)-4,4-difluoropiperidin-3-yl)pyridine 1-oxide]: 78 nM.
On to `C[C@@H](C(=O)Nc1cn(Cc2cc(F)c(F)cc2F)cn1)N1CCC(F)(F)[C@@H](c2cc[n+]([O-])cc2)C1` [Compound 65, 4-((S)-4,4-difluoro-1-((S)-1-oxo-1-((1-(2,4,5-trifluorobenzyl)-1H-imidazol-4-yl)amino)propan-2-yl)piperidin-3-yl)pyridine 1-oxide], for which the IC50 was 504 nM.
`C[C@@H](C(=O)Nc1cn(Cc2cccc(Cl)c2Cl)cn1)N1CCC(F)(F)[C@@H](c2cc[n+]([O-])cc2)C1` [Compound 66, 4-((S)-1-((S)-1-((1-(2,3-dichlorobenzyl)-1H-imidazol-4-yl)amino)-1-oxopropan-2-yl)-4,4-difluoropiperidin-3-yl)pyridine 1-oxide] showed an IC50 of 71 nM.
`C[C@@H](C(=O)Nc1cn(-c2cc(F)cc(F)c2)cn1)N1CCC(F)(F)[C@@H](c2cc[n+]([O-])cc2)C1` [Compound 75, 4-((S)-1-((S)-1-((1-(3,5-difluorophenyl)-1H-imidazol-4-yl)amino)-1-oxopropan-2-yl)-4,4-difluoropiperidin-3-yl)pyridine 1-oxide] displayed a half-maximal inhibitory concentration (IC50) of 513 nM.
On the same count and under the same terms, under `C[C@@H](C(=O)Nc1cn(Cc2cc(F)cc(F)c2)c(C(F)F)n1)N1CCC(F)(F)CC1` [Compound 492, (S)—N-(1-(3,5-difluorobenzyl)-2-(difluoromethyl)-1H-imidazol-4-yl)-2-(4,4-difluoropiperidin-1-yl)propanamide] stands 35 nM.
On the same count and under the same terms, under `CNCc1cc(C2CN([C@@H](C)C(=O)Nc3cn4c(n3)CC[C@@H]4c3cc(F)cc(F)c3)CCC2(F)F)c[nH]c1=O` (stereo partly drawn) [Compound 529, (2S)-2-(4,4-difluoro-3-(5-((methylamino)methyl)-6-oxo-1,6-dihydropyridin-3-yl)piperidin-1-yl)-N—((R)-5-(3,5-difluorophenyl)-6,7-dihydro-5H-pyrrolo[1,2-a]imidazol-2-yl)propanamide] stands 80 nM; under “(2S)-2-[(3R)-4,4-difluoro-3-(1-methyl-6-oxopyridin-3-yl)piperidin-1-yl]-N-{1-[(3,5-difluorophenyl)methyl]imidazol-4-yl}propanamide [Compound 78]”, greater than 30000 nM.
Still for that read-out and setting: the same measure for “(R)-2-((S)-4,4-difluoro-3-(6-oxo-1,6-dihydropyridin-3-yl)piperidin-1-yl)-N-(1-(3,5-difluorobenzyl)-1H-imidazol-4-yl)propanamide [Compound 79]”: 18100 nM.
Consider “(S)-2-((S)-4,4-difluoro-3-(6-oxo-1,6-dihydropyridin-3-yl)piperidin-1-yl)-N-(1-(3,5-difluorobenzyl)-1H-imidazol-4-yl)propanamide [Compound 76]”, for which the IC50 came out at 2220 nM.

These data come from patent US20250122171A1, “Substituted Amine Compounds, Compositions and Methods of Use” (Deep Apple Therapeutics, Inc., priority 2023, published 2025).
